Test results published in patent US20090312288A1 (TAKEDA PHARMACEUTICAL COMPANY LIMITED, priority 2008, published 2009).

Biological target: Aurora B/INCENP (Homo sapiens, UniProt Q96GD4)
Experiment: Determination of inhibition of AIK: Aurora B/INCENP direct fluorescence polarization (IMAP) assay
Assay type: biochemical
Conditions: 10 uM ATP, 0.8 nM Aurora B/INCENP; values given as bins; read-out: IC50 of Exemplified Compounds Against AIK B
Experimental: Detection of the reaction product is performed by addition of Progressive IMAP binding reagent (Molecular Devices). Reaction product may be determined quantitatively by FP using an Analyst HT plate reader (Molecular Devices) with an excitation wavelength at 485 nm and emission at 530 nm and using a Fluorescein 505 dichroic mirror.
The assay reaction may be initiated as follows: 2 ul of (3×) 300 nM Fl-Peptide/30 uM ATP was added to each well of the plate, followed by the addition of 2 ul of (3×) inhibitor (2 fold serial dilutions for 11 data points for each inhibitor) containing 15% DMSO. Two microliters of (3×) 2.4 nM AuroraB/INCENP solution may be added to initiate the reaction (final enzyme concentration was 0.8 nM for Aurora B/INCENP). The reaction mixture may then be incubated at room temperature for 45 min, and quenched and developed by addition of 20 ul of 1 to 400 diluted Progressive IMAP binding reagent in 1× proprietary Progressive IMAP binding buffer A. Fluorescence polarization readings of the resulting reaction mixtures may be measured after a 60-minute incubation at room temperature.
IC50 values may be calculated by non-linear curve fitting of the compound concentrations and fluorescent polarization values to the standard IC50 equation.

Sequence of Aurora B/INCENP (Q96GD4 whole entry): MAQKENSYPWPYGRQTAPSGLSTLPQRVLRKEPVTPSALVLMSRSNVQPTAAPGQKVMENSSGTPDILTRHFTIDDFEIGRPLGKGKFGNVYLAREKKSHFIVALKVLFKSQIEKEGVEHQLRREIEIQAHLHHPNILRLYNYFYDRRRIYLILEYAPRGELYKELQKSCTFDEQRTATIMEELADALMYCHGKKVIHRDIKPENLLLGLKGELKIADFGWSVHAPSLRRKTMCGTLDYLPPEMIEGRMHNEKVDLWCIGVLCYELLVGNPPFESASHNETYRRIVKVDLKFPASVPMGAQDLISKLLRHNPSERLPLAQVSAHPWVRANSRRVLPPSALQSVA
Sequence of Aurora B/INCENP (Q9NQS7 whole entry partner): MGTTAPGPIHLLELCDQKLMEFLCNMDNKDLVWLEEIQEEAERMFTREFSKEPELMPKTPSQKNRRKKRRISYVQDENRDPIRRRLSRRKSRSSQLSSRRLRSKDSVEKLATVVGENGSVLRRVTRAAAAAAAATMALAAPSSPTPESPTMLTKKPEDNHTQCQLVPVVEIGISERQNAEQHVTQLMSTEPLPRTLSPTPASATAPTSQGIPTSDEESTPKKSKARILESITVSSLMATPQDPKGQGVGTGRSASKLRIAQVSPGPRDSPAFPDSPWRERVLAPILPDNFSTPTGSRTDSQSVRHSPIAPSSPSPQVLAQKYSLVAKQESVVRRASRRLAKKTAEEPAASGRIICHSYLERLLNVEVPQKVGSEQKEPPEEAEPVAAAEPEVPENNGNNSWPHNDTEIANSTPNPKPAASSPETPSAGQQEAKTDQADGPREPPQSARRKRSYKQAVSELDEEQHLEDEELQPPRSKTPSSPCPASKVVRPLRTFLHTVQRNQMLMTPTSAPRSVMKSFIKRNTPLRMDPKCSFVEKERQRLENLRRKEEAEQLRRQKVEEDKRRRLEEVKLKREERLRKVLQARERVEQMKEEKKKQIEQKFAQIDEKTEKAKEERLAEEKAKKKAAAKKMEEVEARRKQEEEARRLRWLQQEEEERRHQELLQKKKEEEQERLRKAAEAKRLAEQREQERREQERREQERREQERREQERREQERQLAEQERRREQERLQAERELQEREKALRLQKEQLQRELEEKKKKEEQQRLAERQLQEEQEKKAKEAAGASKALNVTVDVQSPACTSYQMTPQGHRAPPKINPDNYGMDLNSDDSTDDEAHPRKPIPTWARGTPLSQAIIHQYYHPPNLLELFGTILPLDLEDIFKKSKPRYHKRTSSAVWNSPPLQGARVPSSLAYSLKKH

Row | Compound | IC50 [nM]
1 | CCS(=O)(=O)c1cccc(-c2ccc(OC)c3[nH]c4ncc(Cl)cc4c23)c1 [Compound 218] | < 4
2 | CCS(=O)(=O)c1cccc(-c2cc(C(=O)OC)cc3[nH]c4ncc(C)cc4c23)c1 [Compound 133, 5-(3-Ethanesulfonyl-phenyl)-3-methyl-9H-pyrido[2,3-b]indole-7-carboxylic acid methyl ester] | 8.6 to 13
3 | Cc1cnc2[nH]c3c(C)c(C(=O)NC4CCN(C)CC4)cc(-c4cccc(NC(=O)C5CC5)c4)c3c2c1 [Compound 120, 5-(3-(cyclopropanecarboxamido)phenyl)-3,8-dimethyl-N-(1-methyl-piperidin-4-yl)-9H-pyrido[2,3-b]indole-7-carboxamide] | 5.6 to 8.5
4 | COc1ccc(-c2ccc3c(c2)OCO3)c2c1[nH]c1ncc(C)cc12 [Compound 166, 5-(benzo[d][1,3]dioxol-5-yl)-8-methoxy-3-methyl-9H-pyrido[2,3-b]indole] | > 13
5 | CCS(=O)(=O)c1cccc(-c2cnc(OCc3cncs3)c3[nH]c4ncc(C)cc4c23)c1 [Compound 60, 5-(3-Ethanesulfonyl-phenyl)-3-methyl-8-(thiazol-5-ylmethoxy)-9H-dipyrido[2,3-b;4′,3′-d]pyrrole] | 4 to 5.5
6 | CCS(=O)(=O)c1cccc(-c2cc(C(=O)NC[C@@H](C)O)c(C)c3[nH]c4ncc(C)cc4c23)c1 [Compound 99, (R)-5-(3-(ethylsulfonyl)phenyl)-N-(2-hydroxypropyl)-3,8-dimethyl-9H-pyrido[2,3-b]indole-7-carboxamide] | 8.6 to 13
7 | CCS(=O)(=O)c1cccc(-c2cnc(C(N)=O)c3[nH]c4ncc(C)cc4c23)c1 [Compound 50, 5-(3-Ethanesulfonyl-phenyl)-3-methyl-9H-dipyrido[2,3-b;4′,3′-d]pyrrole-8-carboxylic acid amide] | 5.6 to 8.5
8 | CCS(=O)(=O)c1cccc(-c2c(Cl)c(C(=O)OC)cc3[nH]c4ncc(C)cc4c23)c1 [Compound 149, 6-Chloro-5-(3-ethanesulfonyl-phenyl)-3-methyl-9H-pyrido[2,3-b]indole-7-carboxylic acid methyl ester] | > 13
9 | Cc1cnc2[nH]c3c(OCC4CCN(C)CC4)ccc(-c4cccc(S(=O)(=O)N(C)C)c4)c3c2c1 [Compound 181, N,N-dimethyl-3-(3-methyl-8-((1-methylpiperidin-4-yl)methoxy)-9H-pyrido[2,3-b]indole-5-yl)benzenesulfonamide] | 8.6 to 13
10 | CCOc1ccc(-c2cccc(S(=O)(=O)CC)c2)c2c1[nH]c1ncc(C)cc12 [Compound 171, 8-ethoxy-5-(3-(ethylsulfonyl)phenyl)-3-methyl-9H-pyrido[2,3-b]indole] | 5.6 to 8.5
11 | CCS(=O)(=O)c1cccc(-c2cnc(OCC3CCN(C)CC3)c3[nH]c4ncc(C)cc4c23)c1 [Compound 54, 5-(3-Ethanesulfonyl-phenyl)-3-methyl-8-(1-methyl-piperidin-4-ylmethoxy)-9H-dipyrido[2,3-b;4′,3′-d]pyrrole] | 8.6 to 13
12 | CCS(=O)(=O)c1cccc(-c2cc(C(=O)N(C)CCN(C)C)c(C)c3[nH]c4ncc(C)cc4c23)c1 [Compound 91, N-(2-(dimethylamino)ethyl)-N-methyl-5-(3-(ethylsulfonyl)phenyl)-3,8-dimethyl-9H-pyrido[2,3-b]indole-7-carboxamide] | > 13
13 | Cc1cnc2[nH]c3cc(C(=O)NCCN(C)C)cc(SCc4ccccc4)c3c2c1 [Compound 152, 5-(benzylthio)-N-(2-(dimethylamino)ethyl)-3-methyl-9H-pyrido[2,3-b]indole-7-carboxamide] | > 13
14 | CCS(=O)(=O)c1cccc(-c2cc(Cl)c(OCCCO)c3[nH]c4ncc(C)cc4c23)c1 [Compound 248, 3-(7-chloro-5-(3-(ethylsulfonyl)phenyl)-3-methyl-9H-pyrido[2,3-b]indol-8-yloxy)propan-1-ol] | > 13
15 | CCS(=O)(=O)c1cccc(-c2ccc(O[C@@H](C)CO)c3[nH]c4ncc(C)cc4c23)c1 [Compound 213, (S)-2-(5-(3-(ethylsulfonyl)phenyl)-3-methyl-9H-pyrido[2,3-b]indol-8-yloxy)propan-1-ol] | 4 to 5.5
16 | CCS(=O)(=O)c1cccc(-c2cnc(OC[C@@H](C)O)c3[nH]c4ncc(Cl)cc4c23)c1 [Compound 73, (R)-1-[3-Chloro-5-(3-ethanesulfonyl-phenyl)-9H-dipyrido[2,3-b;4′,3′-d]pyrrol-8-yloxy]-propan-2-ol] | < 4
17 | CCS(=O)(=O)c1cccc(-c2cc(C(=O)N(C)C)c(C)c3[nH]c4ncc(C)cc4c23)c1 [Compound 92, N,N-dimethyl-5-(3-(ethylsulfonyl)phenyl)-3,8-dimethyl-9H-pyrido[2,3-b]indole-7-methylcarboxamide] | 5.6 to 8.5

Results, then the molecule that gave them:

Row | IC50 [nM] | Compound
18 | < 4 | Cc1cnc2[nH]c3c(OC[C@H](CO)CN(C)C)ccc(-c4cccc(S(=O)(=O)C5CC5)c4)c3c2c1 [Compound 401, (S)-3-(5-(3-(cyclopropylsulfonyl)phenyl)-3-methyl-9H-pyrido[2,3-b]indol-8-yloxy)-2-((dimethylamino)methyl)propan-1-ol]
19 | < 4 | CCS(=O)(=O)c1cccc(-c2ccc(OCCCOP(=O)(O)O)c3[nH]c4ncc(C)cc4c23)c1 [Compound 350, 3-(5-(3-(ethylsulfonyl)phenyl)-3-methyl-9H-pyrido[2,3-b]indol-8-yloxy)propyl dihydrogen phosphate]
20 | < 4 | Cc1cnc2[nH]c3c(OCCCN4CCC(COP(=O)(O)O)CC4)ccc(-c4cccc(S(=O)(=O)C5CC5)c4)c3c2c1 [Compound 347, (1-(3-(5-(3-(cyclopropylsulfonyl)phenyl)-3-methyl-9H-pyrido[2,3-b]indol-8-yloxy)propyl)piperidin-4-yl)methyl dihydrogen phosphate]
21 | 4 to 5.5 | Cc1cnc2[nH]c3c(OC[C@H](O)CN4CCOCC4)ccc(-c4cccc(S(=O)(=O)C5CC5)c4)c3c2c1 [Compound 380, (R)-1-(5-(3-(cyclopropylsulfonyl)phenyl)-3-methyl-9H-pyrido[2,3-b]indol-8-yloxy)-3-morpholinopropan-2-ol]
22 | < 4 | CCNCCCOc1ccc(-c2cccc(S(=O)(=O)C3CC3)c2)c2c1[nH]c1ncc(C)cc12 [Compound 407, 3-(5-(3-(cyclopropylsulfonyl)phenyl)-3-methyl-9H-pyrido[2,3-b]indol-8-yloxy)-N-ethylpropan-1-amine]
23 | 4 to 5.5 | CCS(=O)(=O)c1cccc(-c2ccc(O[C@H](C)CCO)c3[nH]c4ncc(C)cc4c23)c1 [Compound 388, (R)-3-(5-(3-(ethylsulfonyl)phenyl)-3-methyl-9H-pyrido[2,3-b]indol-8-yloxy)butan-1-ol]
24 | 5.6 to 8.5 | CCN(CCO)CCCOc1ccc(-c2cccc(S(=O)(=O)CC)c2)c2c1[nH]c1ncc(C)cc12 [Compound 276, 2-(ethyl(3-(5-(3-(ethylsulfonyl)phenyl)-3-methyl-9H-pyrido[2,3-b]indol-8-yloxy)propyl)amino)ethanol]
25 | < 4 | CN(CCO)CCOc1ccc(-c2cccc(S(=O)(=O)C3CC3)c2)c2c1[nH]c1ncc(Cl)cc12 [Compound 319, 2-((2-(3-chloro-5-(3-(cyclopropylsulfonyl)phenyl)-9H-pyrido[2,3-b]indol-8-yloxy)ethyl)(methyl)amino)ethanol]
26 | 8.6 to 13 | CCS(=O)(=O)c1cccc(-c2ccc(OCCN3CCC(O)CC3)c3[nH]c4ncc(Cl)cc4c23)c1 [Compound 327, 1-(2-(3-chloro-5-(3-(ethylsulfonyl)phenyl)-9H-pyrido[2,3-b]indol-8-yloxy)ethyl)piperidin-4-ol]
